Calls of active or inactive are those of the source. The rule behind the calls is not given here.

The term MIC denotes the least concentration at which growth counts as inhibited. Low values mean a more susceptible organism, high ones a less susceptible organism.

The test system of experiment [1] is Helicobacter pylori. The experiment in a line: Antimicrobial activity against Helicobacter pylori clinical isolate by Etest. It is filed as functional, organism-based.
In experiment [2] the test system is Helicobacter pylori. The experiment in a line: Antimicrobial activity against Helicobacter pylori clinical isolate expressing 23S rRNA A2142G mutant by Etest. Format: functional.
In experiment [3] the test system is Helicobacter pylori. The experiment in a line: Antimicrobial activity against Helicobacter pylori clinical isolate expressing 23S rRNA A2143G mutant by Etest. It is filed as functional, organism-based.

As to `CN(C)[C@@H]1C(O)=C(C(N)=O)C(=O)[C@@]2(O)C(O)=C3C(=O)c4c(O)cccc4[C@@](C)(O)[C@H]3C[C@@H]12`, the outcome in the experiment on Helicobacter pylori [1] was Active.
`CC[C@H]1OC(=O)[C@H](C)[C@@H](O[C@H]2C[C@@](C)(OC)[C@@H](O)[C@H](C)O2)[C@H](C)[C@@H](O[C@@H]2O[C@H](C)C[C@H](N(C)C)[C@H]2O)[C@](C)(OC)C[C@@H](C)C(=O)[C@H](C)[C@@H](O)[C@]1(C)O` [CLARITHROMYCIN] showed an MIC against Helicobacter pylori [2] of more than 256 µg/mL. In addition, the result in the experiment on Helicobacter pylori [3] was inactive.

(Values after ChEMBL document CHEMBL1649575, “Antimicrobial susceptibility and mutations involved in clarithromycin resistance in Helicobacter pylori isolates from patients in the western central region of Colombia” (2009).)
